According to PMC8446577, “Novel cold-adapted raw-starch digesting α-amylases from Eisenia fetida: Gene cloning, expression, and characterization” (Biotechnology Reports, 2021):

Target: T1, rEf-Amy I (Eisenia fetida, UniProt A0A173N065)
T1 construct: gene alpha-amylase; mature enzyme without signal peptide, secreted from Pichia pastoris GS115 (pPICZalphaA, codon-optimised gene), HisTrap purified, 57 kDa by SDS-PAGE; precursor 510 residues; borders from printed domain limits E18-V510
T1 sequence (A0A173N065 18-510): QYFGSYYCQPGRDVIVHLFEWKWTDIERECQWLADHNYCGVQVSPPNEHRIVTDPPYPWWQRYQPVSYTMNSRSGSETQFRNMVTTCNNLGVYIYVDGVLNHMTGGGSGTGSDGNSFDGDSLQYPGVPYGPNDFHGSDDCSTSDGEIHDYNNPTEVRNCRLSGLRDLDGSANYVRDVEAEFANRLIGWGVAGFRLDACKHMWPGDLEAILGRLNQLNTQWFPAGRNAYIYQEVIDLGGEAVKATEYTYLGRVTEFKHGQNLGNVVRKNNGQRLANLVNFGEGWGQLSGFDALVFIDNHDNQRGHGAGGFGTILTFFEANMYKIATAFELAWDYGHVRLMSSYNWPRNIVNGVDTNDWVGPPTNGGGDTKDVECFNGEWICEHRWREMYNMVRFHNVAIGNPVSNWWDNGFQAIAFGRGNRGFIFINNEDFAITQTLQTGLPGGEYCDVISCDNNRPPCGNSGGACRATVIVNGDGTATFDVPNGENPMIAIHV
Assay: HPLC (RI detection) of hydrolysis products
Type: biochemical
Conditions: 5 mM substrate, 50 mM sodium acetate pH 5.5, 37 °C

| Structure (SMILES) | HPLC (RI detection) of hydrolysis products |
| --- | --- |
| OC[C@H]1O[C@H](O[C@H]2[C@H](O)[C@@H](O)[C@@H](O[C@H]3[C@H](O)[C@@H](O)[C@@H](O[C@H]4[C@H](O)[C@@H](O)[C@@H](O[C@H]5[C@H](O)[C@@H](O)C(O)O[C@@H]5CO)O[C@@H]4CO)O[C@@H]3CO)O[C@@H]2CO)[C@H](O)[C@@H](O)[C@@H]1O (some centres unmarked) [maltopentaose] | In the case of Ef-Amy I, the major hydrolysis products from Mal5 were Mal and Mal3 |
| OC[C@H]1O[C@H](O[C@H]2[C@H](O)[C@@H](O)[C@@H](O[C@H]3[C@H](O)[C@@H](O)[C@@H](O[C@H]4[C@H](O)[C@@H](O)C(O)O[C@@H]4CO)O[C@@H]3CO)O[C@@H]2CO)[C@H](O)[C@@H](O)[C@@H]1O (some centres unmarked) [maltotetraose] | from Mal4 was Mal (Fig. 5B) |
